Target: T1, i-NOS (Homo sapiens, UniProt P35228)
T1 construct: The supernatant was collected as a source of i-NOS; endogenous in cells; host or cells: A549 (human lung epithelial cell line), stimulated with LPS, TNF-alpha, IL-1beta and IFN-gamma; sonicated, 54,000 rpm supernatant
Assay: i-NOS Inhibition Test
Assay type: biochemical
Conditions: i-NOS from supernatant of A549 cells stimulated with LPS, TNF-α, IL-1β, INF-γ; 14C-L-arginine substrate; 37° C., 10 minutes; pH 7.8
Description: The pharmacological activity of the compound of formula (I) according to the present invention on i-NOS was examined by the following test.
To human lung epithelial cell line of A549 were added 10 μg/ml of lipopolysaccharide (LPS), 10 ng/ml of tumor necrosis factor-α (TNF-α), 5 ng/ml of interleukin-1β (IL-1β), and 100 ng/ml of interferon-γ (INF-γ). Sixteen hours later the cells were ruptured by ultrasonication and centrifuged at 54,000 rpm. The supernatant was collected as a source of i-NOS.
i-NOS was made to act on ^14 C-labeled L-arginine as a substrate, and L-citrulline produced in the presence of the compound of the invention was determined to calculate the 50% inhibitory concentration of the test compound. More specifically, 10 μl of a 16.8 μM solution of L-[U-^14 C]arginine, 10 μl of the above-prepared i-NOS source, and 10 μl of varied amount of a test compound were added to 70 μl of a solution comprising 50 mM HEPES (N-2-hydroxyethylpiperazine-N'-2-ethanesulfonic acid) (pH 7.8), 1 mM DTT (dithiothreitol), 1 mM NADPH (reduced nicotinamide adenine dinucleotide phosphate), 0.1 mM BH4 (tetrahydrobiopterin), 10 μM FAD (flavin adenine dinucleotide), and 500 units/ml of CaM (calmodulin), and the solution was made to 100 μl. After incubation at 37° C. for 10 minutes, 0.225 ml of a reaction terminating buffer consisting of 100 mM HEPES (pH 5.1 to 5.5) and 10 mM EDTA (ethylenediaminetetraacetic acid) was added while cooling with ice to cease the enzymatic reaction. The reaction solution was passed through a column packed with 0.25 ml of Dowex 50WX-8 (Na^+ form) to remove unreacted L-arginine and the column was washed with 0.45 ml of the reaction terminating buffer to collect an effluent containing L-citrulline. The radioactivity of the effluent was measured with a liquid scintillation counter, which was taken as NOS activity, from which a 50% inhibition concentration of the test compound was obtained.

IC50	SMILES
220 nM	C[C@H]1CC(=N)N[C@H]2[C@@H]1C2(C)C (relative stereo) [compound 1]
12 nM	C[C@H]1CC(=N)N[C@@H]2[C@H](Cl)[C@@H]21 [compound 3]
200 nM	N=C1CC2(CCN1)CC2 [compound 7]
180 nM	C[C@@H]1CC(=N)N[C@H]2C[C@@H]12 [3 (f)]
90 nM	C[C@H]1CC(=N)N[C@@H]2C[C@H]12 (relative stereo) [3 (a)]
20 nM	C[C@H]1CC(=N)N[C@@H]2[C@H](Cl)[C@@H]21 (relative stereo) [3 (c)]
21 nM	C[C@H]1CC(=N)N[C@H]2[C@@H]1C2(Cl)Cl (single isomer, unassigned) [compound 4]
47 nM	C[C@@H]1CC(=N)N[C@@H]2C[C@H]12 (relative stereo) [3 (g)]
130 nM	C[C@@H]1CC(=N)N[C@@]2(C)C[C@@H]12 (relative stereo) [3 (i)]
92 nM	C[C@H]1[C@H]2NC(=N)C[C@H](C)[C@@H]12 (relative stereo) [2 (g)]
57 nM	C[C@H]1CC(=N)N[C@H]2[C@@H]1C2(Cl)Cl (relative stereo) [4 (a)]
